Experiments:
[1] = The drug is tested on WLS-039 corresponding to human gut metagenome with ENA study accession number: PRJEB37062 and ENA sample accession number: ERS12561746 for biotransformation under anaerobic condition. The drug concentrations were measured over 9 timepoints collected between 0 and 24 hours of incubation by liquid-chromatography-coupled mass spectrometry (LC–MS); conditions: 2 µM
[2] = human gut metagenome, 24 h, 2 µM
[3] = human gut metagenome, 24 h, 2 µM; remark: listed apart in the source
[4] = The drug is tested on WLS-069 corresponding to human gut metagenome with ENA study accession number: PRJEB37062 and ENA sample accession number: ERS12561748 for biotransformation under anaerobic condition. The drug concentrations were measured over 9 timepoints collected between 0 and 24 hours of incubation by liquid-chromatography-coupled mass spectrometry (LC–MS); conditions: 2 µM
[5] = human gut metagenome, 24 h, 2 µM; remark: listed apart in the source
[6] = human gut metagenome, 24 h, 2 µM; remark: listed apart in the source
[7] = human gut metagenome, 24 h, 2 µM; remark: listed apart in the source
[8] = human gut metagenome, 24 h, 2 µM; remark: listed apart in the source
[9] = human gut metagenome, 24 h, 2 µM; remark: listed apart in the source
Note: call rule not given here.

Structure (SMILES)	Bacterial Biotransformation [1]	Bacterial Biotransformation [2]	Bacterial Biotransformation [3]	Bacterial Biotransformation [4]	Bacterial Biotransformation [5]	Bacterial Biotransformation [6]	Bacterial Biotransformation [7]	Bacterial Biotransformation [8]	Bacterial Biotransformation [9]
C[C@@H](c1ncncc1F)[C@](O)(Cn1cncn1)c1ccc(F)cc1F [VORICONAZOLE]	Compound metabolized	Compound metabolized	Compound metabolized	Compound metabolized	Compound metabolized	Compound metabolized	Compound metabolized	Compound metabolized	Compound metabolized
CC(=O)OCC(=O)[C@@]1(OC(C)=O)[C@@H](C)C[C@H]2[C@@H]3C[C@H](F)C4=CC(=O)C=C[C@]4(C)[C@@]3(F)[C@@H](O)C[C@@]21C [DIFLORASONE DIACETATE]	Compound metabolized	Compound metabolized	Compound metabolized	Compound metabolized	Compound metabolized	Compound metabolized	Compound metabolized	Compound metabolized	Compound metabolized
CCN1CCCC1CNC(=O)c1cc(S(=O)(=O)CC)c(N)cc1OC (centres undefined) [AMISULPRIDE]	Compound NOT metabolized	Compound NOT metabolized	Compound metabolized	Compound NOT metabolized	Compound NOT metabolized	Compound metabolized	Compound NOT metabolized	Compound metabolized	Compound NOT metabolized
CN1[C@@H]2CC[C@H]1C[C@@H](OC(=O)c1c[nH]c3ccccc13)C2 [TROPISETRON]	Compound NOT metabolized	Compound NOT metabolized	Compound NOT metabolized	Compound NOT metabolized	Compound NOT metabolized	Compound NOT metabolized	Compound NOT metabolized	Compound NOT metabolized	Compound NOT metabolized
CCOC(=O)[C@H](CCc1ccccc1)N[C@@H](C)C(=O)N1Cc2ccccc2C[C@H]1C(=O)O	Compound metabolized	Compound metabolized	Compound metabolized	Compound metabolized	Compound metabolized	Compound metabolized	Compound NOT metabolized	Compound metabolized	Compound metabolized
CC(=O)Oc1ccc(C(c2ccc(OC(C)=O)cc2)c2ccccn2)cc1 [BISACODYL]	Compound metabolized	Compound metabolized	Compound metabolized	Compound metabolized	Compound metabolized	Compound metabolized	Compound metabolized	Compound metabolized	Compound metabolized

Reference: ChEMBL document CHEMBL5724914, “Linking interpersonal differences in gut microbiota composition and drug biotransformation activity” (2024)
